Reference: PMC11114116 (Molecular Pharmacology, 2024)
Like-named read-outs stand apart in the source and are kept apart here.

Tests used:
human FABP1 (hFABP1) = target: T1, human FABP1 (hFABP1) (Homo sapiens, UniProt P07148); assay: DAUDA displacement assay for hFABP1 binding; conditions: for Maximum decrease of DAUDA-FABP1 fluorescence at saturation: 0.3 μM FABP1, 0.5 μM DAUDA; for Fres (% Fluorescence Remaining): residual DAUDA-FABP1 fluorescence at saturating ligand (Min of eq. 7)
T1 sequence (P07148 1-127): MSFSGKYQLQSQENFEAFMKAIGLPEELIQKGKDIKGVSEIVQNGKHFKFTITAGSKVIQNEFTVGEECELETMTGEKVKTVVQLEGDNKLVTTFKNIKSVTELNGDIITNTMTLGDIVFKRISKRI

FABP2 = conditions: ref Patil et al., 2014; cited from earlier work
CYP2C9 = CYP2C9 (Homo sapiens, UniProt P11712); assay type: in vitro ADME
Sequence of CYP2C9 (P11712 whole entry): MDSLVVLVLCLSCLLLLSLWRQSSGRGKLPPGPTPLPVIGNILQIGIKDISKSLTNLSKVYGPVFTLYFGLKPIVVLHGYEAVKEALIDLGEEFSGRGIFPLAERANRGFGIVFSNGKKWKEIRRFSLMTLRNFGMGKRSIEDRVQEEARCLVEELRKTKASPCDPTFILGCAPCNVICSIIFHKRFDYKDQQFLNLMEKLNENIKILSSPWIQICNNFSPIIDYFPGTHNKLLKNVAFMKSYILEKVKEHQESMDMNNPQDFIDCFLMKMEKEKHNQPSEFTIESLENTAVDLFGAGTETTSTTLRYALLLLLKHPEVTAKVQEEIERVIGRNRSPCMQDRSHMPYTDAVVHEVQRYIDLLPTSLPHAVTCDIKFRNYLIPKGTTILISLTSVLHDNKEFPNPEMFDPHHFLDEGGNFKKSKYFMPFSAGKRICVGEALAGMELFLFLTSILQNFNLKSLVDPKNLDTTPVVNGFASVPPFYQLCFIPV

## CCc1ccc(CCOc2ccc(CC3SC(=O)NC3=O)cc2)nc1 (centres unmarked) [Pioglitazone, pioglitazone]
Human FABP1 (hFABP1)
  Maximum decrease of DAUDA-FABP1 fluorescence at saturation: > 82%
  Fres (% Fluorescence Remaining): 5.2 ± 2.4%

## CC(C(=O)O)c1ccc(-c2ccccc2)c(F)c1 (centres unmarked) [flurbiprofen]
Human FABP1 (hFABP1)
  Kd: 2 to 10 µM

## C[C@@H](C(=O)O)c1ccc(-c2ccccc2)c(F)c1 [R-Flurbiprofen, (R)-flurbiprofen]
Human FABP1 (hFABP1)
  Fres (% Fluorescence Remaining): 40 ± 1.6%

## CC(C)Cc1ccc(C(C)C(=O)O)cc1 (centres unmarked) [Ibuprofen, ibuprofen]
Human FABP1 (hFABP1)
  Fres (% Fluorescence Remaining): 28 ± 4.9%

## Nc1ccc(S(=O)(=O)Nc2ccnn2-c2ccccc2)cc1 [Sulfaphenazole, sulfaphenazole]
Human FABP1 (hFABP1)
  EC50: > 40 µM

## CCCCNC(=O)NS(=O)(=O)c1ccc(C)cc1 [Tolbutamide, tolbutamide]
Human FABP1 (hFABP1)
  EC50: > 40 µM

## CNCCC(Oc1ccc(C(F)(F)F)cc1)c1ccccc1 (centres unmarked) [fluoxetine]
Human FABP1 (hFABP1); drug at 30 μM, 0.3 μM FABP1 prebound with 0.5 μM DAUDA
  Decrease of DAUDA fluorescence in initial screen: All of the drugs tested except fluoxetine decreased DAUDA fluorescence

## O=C(c1ccccc1)c1ccc2n1CCC2C(=O)O (centres unmarked) [Ketorolac, ketorolac]
FABP2
  Displacement of fluorescent probe ANS from FABP2: did not displace

## C[C@H](C(=O)O)c1ccc(-c2ccccc2)c(F)c1 [S-Flurbiprofen, (S)-flurbiprofen]
Human FABP1 (hFABP1)
  Fres (% Fluorescence Remaining): 48 ± 1.1%

## CCCCC/C=C\C/C=C\C/C=C\C/C=C\CCCC(=O)O [Arachidonic Acid, arachidonic acid]
Human FABP1 (hFABP1)
  EC50: 0.42 ± 0.11 µM
  Fres (% Fluorescence Remaining): 2.2 ± 3.6%

## O=C(O)Cc1ccccc1Nc1c(Cl)cccc1Cl [Diclofenac, diclofenac]
CYP2C9; CYP2C9 Supersomes (recombinant CYP2C9) with 20 μM hFABP1, pH 7.4, Km,apparent for 4'-OH-diclofenac formation, +FABP1, nominal diclofenac concentrations, 20 μM hFABP1, 1 nM CYP2C9 Supersomes
  Km at 10 min: 5.8 ± 1.5 µM
CYP2C9; CYP2C9 Supersomes (recombinant CYP2C9), without hFABP1, pH 7.4, Km,apparent for 4'-OH-diclofenac formation, −FABP1, nominal diclofenac concentrations, absence of FABP1, 1 nM CYP2C9 Supersomes
  Km at 10 min: 1.4 ± 0.2 µM
Human FABP1 (hFABP1)
  Maximum decrease of DAUDA-FABP1 fluorescence at saturation: > 82%
  Fres (% Fluorescence Remaining): 15 ± 3.0%
Human FABP1 (hFABP1); listed as diclofenac
  Maximum decrease of DAUDA-FABP1 fluorescence at saturation: ~85%

## Cc1ccc(C)c(OCCCC(C)(C)C(=O)O)c1 [Gemfibrozil, gemfibrozil]
Human FABP1 (hFABP1)
  EC50: 5.6 ± 1.7 µM
  Maximum decrease of DAUDA-FABP1 fluorescence at saturation: > 82%
  Fres (% Fluorescence Remaining): 18 ± 2.8%
